In brackets after ≈: the same amount, converted by molar mass.
Legend:
Motilin receptor = Motilin receptor (Oryctolagus cuniculus, UniProt A5A4K8); experiment: Agonist activity at motilin receptor in rabbit smooth muscle assessed as maximal possible tissue contraction; format: functional
hERG (KCNH2) [1] = target: T1, hERG (KCNH2) (Homo sapiens, UniProt Q12809); experiment: Inhibition of human ERG at 300 uM
Streptococcus pneumoniae = experiment: Antimicrobial activity against erythromycin-sensitive Streptococcus pneumoniae ATCC 6301; format: functional
hERG (KCNH2) [2] = target: T1, hERG (KCNH2); experiment: Inhibition of human ERG at 30 uM
[3] = target: Motilin receptor (Oryctolagus cuniculus) (UniProt A5A4K8); experiment: Agonist activity at motilin receptor in rabbit smooth muscle assessed as tachyphylaxis at EC90 concentration after 4th dose; format: functional
[4] = target: Voltage-gated inwardly rectifying potassium channel KCNH2 (Homo sapiens, UniProt Q12809); experiment: Inhibition of human ERG
Chain of Voltage-gated inwardly rectifying potassium channel KCNH2 (Q12809 whole entry): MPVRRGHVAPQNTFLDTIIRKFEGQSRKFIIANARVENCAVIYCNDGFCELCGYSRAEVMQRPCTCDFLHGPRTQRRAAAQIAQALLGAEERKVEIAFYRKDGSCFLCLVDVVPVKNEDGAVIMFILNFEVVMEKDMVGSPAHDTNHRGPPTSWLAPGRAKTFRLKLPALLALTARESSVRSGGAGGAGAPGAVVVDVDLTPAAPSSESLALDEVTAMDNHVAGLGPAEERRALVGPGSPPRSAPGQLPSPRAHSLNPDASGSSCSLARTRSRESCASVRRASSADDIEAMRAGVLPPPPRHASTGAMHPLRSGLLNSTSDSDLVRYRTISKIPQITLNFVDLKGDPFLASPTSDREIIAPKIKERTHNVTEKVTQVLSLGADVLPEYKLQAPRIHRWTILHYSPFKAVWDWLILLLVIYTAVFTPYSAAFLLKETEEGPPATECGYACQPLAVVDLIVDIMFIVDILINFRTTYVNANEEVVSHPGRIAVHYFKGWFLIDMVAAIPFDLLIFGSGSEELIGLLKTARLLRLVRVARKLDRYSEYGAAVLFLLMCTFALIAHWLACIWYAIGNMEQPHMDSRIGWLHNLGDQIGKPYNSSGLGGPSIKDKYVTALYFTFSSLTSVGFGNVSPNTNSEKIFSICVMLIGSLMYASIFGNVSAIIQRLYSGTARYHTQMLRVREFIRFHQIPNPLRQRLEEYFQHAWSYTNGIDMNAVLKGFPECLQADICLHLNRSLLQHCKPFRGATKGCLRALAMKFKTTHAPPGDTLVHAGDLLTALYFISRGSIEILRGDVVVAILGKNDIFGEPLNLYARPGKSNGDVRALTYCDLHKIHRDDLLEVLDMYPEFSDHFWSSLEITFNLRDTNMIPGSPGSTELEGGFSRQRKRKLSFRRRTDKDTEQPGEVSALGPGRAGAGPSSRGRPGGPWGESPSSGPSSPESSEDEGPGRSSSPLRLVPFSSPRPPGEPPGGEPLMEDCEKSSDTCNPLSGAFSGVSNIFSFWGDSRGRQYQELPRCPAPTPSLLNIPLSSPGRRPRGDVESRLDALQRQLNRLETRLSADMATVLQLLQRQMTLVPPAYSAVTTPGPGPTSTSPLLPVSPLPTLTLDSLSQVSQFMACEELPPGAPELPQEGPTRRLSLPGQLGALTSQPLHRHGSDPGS

T1 sequence (Q12809 whole entry): as above
Chain of Motilin receptor (Oryctolagus cuniculus) (A5A4K8 as listed by the source): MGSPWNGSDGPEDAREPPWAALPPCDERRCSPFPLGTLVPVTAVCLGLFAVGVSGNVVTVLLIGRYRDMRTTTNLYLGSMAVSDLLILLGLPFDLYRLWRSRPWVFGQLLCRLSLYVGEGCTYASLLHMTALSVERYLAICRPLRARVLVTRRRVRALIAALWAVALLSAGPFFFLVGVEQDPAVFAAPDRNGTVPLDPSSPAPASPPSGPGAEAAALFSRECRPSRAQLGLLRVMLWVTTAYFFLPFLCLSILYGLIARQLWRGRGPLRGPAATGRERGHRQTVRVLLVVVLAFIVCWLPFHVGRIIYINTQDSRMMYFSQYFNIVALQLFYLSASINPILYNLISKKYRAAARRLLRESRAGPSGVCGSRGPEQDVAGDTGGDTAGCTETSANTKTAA
Chain of Motilin receptor (A5A4K8 whole entry): as the sequence (A5A4K8 as listed by the source) above

SMILES | EC50 (Motilin receptor) [nM] | inhibition at 300 µM (hERG (KCNH2) [1]) [%] | MIC (Streptococcus pneumoniae) [µg/mL] | inhibition at 30 µM (hERG (KCNH2) [2]) [%] | Activity [3] [%] | IC50 [4] [nM]
CC[C@H]1OC(=O)[C@H](C)[C@@H](O[C@H]2C[C@@](C)(OC)C[C@H](C)O2)[C@H](C)[C@@H](O[C@@H]2O[C@H](C)C[C@H](N(C)C[C@H](C)O)[C@H]2O)[C@](C)(O)C[C@@H](C)[C@H](O)[C@H](C)[C@@H](O)[C@]1(C)O | 140 | 100 | 128 (≈ 168 µM) | 89 | – | –
CC[C@H]1OC(=O)[C@H](C)[C@@H](O[C@H]2C[C@@](C)(OC)C[C@H](C)O2)[C@H](C)[C@@H](O[C@@H]2O[C@H](C)C[C@H](N(C)CC(C)(C)O)[C@H]2O)[C@](C)(O)C[C@@H](C)[C@H](O)[C@H](C)[C@@H](O)[C@]1(C)O | 24 | 100 | 128 (≈ 165 µM) | 86 | – | –
CC[C@H]1OC(=O)[C@H](C)[C@@H](O[C@H]2C[C@@](C)(OC)C[C@H](C)O2)[C@H](C)[C@@H](O[C@@H]2O[C@H](C)C[C@H](N(C)C(C)C)[C@H]2O)[C@](C)(O)C[C@@H](C)[C@H](OCC(=O)N(C)C)[C@H](C)[C@@H](O)[C@]1(C)O | 190 | 100 | 128 (≈ 154 µM) | 50 | – | –
CC[C@H]1OC(=O)[C@H](C)[C@@H](O[C@H]2C[C@@](C)(OC)C[C@H](C)O2)[C@H](C)[C@@H](O[C@@H]2O[C@H](C)C[C@H](N(C)C(C)C)[C@H]2O)[C@](C)(O)C[C@@H](C)[C@H](OCC(N)=O)[C@H](C)[C@@H](O)[C@]1(C)O | 36 | 86 | > 128 | 28 | – | –
CC[C@H]1OC(=O)[C@H](C)[C@@H](O[C@H]2C[C@@](C)(OC)C[C@H](C)O2)[C@H](C)[C@@H](O[C@@H]2O[C@H](C)C[C@H](N(C)CC(=O)NC)[C@H]2O)[C@](C)(O)C[C@@H](C)[C@H](O)[C@H](C)[C@@H](O)[C@]1(C)O | > 5000 | – | – | – | – | –
CC[C@H]1OC(=O)[C@H](C)[C@@H](O[C@H]2C[C@@](C)(OC)[C@@H](O)[C@H](C)O2)[C@H](C)[C@@H](O[C@@H]2O[C@H](C)C[C@H](N(C)C[C@H](C)O)[C@H]2O)[C@](C)(O)C[C@@H](C)[C@H](O)[C@H](C)[C@@H](O)[C@]1(C)O | 360 | – | – | – | – | –
CC[C@H]1OC(=O)[C@H](C)[C@@H](O[C@H]2C[C@@](C)(OC)C[C@H](C)O2)[C@H](C)[C@@H](O[C@@H]2O[C@H](C)C[C@H](N(C)CCO)[C@H]2O)[C@](C)(O)C[C@@H](C)[C@H](O)[C@H](C)[C@@H](O)[C@]1(C)O | 63 | – | 2 (≈ 2.67 µM) | 68 | 94 | –
CC[C@H]1OC(=O)[C@H](C)[C@@H](O[C@H]2C[C@@](C)(OC)C[C@H](C)O2)[C@H](C)[C@@H](O[C@@H]2O[C@H](C)C[C@H](N(C)C3CCC3)[C@H]2O)[C@](C)(O)C[C@@H](C)[C@H](O)[C@H](C)[C@@H](O)[C@]1(C)O | 120 | 100 | > 128 | 92 | – | –
CC[C@H]1OC(=O)[C@H](C)[C@@H](O[C@H]2C[C@@](C)(OC)[C@@H](O)[C@H](C)O2)[C@H](C)[C@@H](O[C@@H]2O[C@H](C)C[C@H](N(C)C(C)C)[C@H]2O)[C@](C)(O)C[C@@H](C)[C@H](OCC(=O)N(C)C)[C@H](C)[C@@H](O)[C@]1(C)O | – | 51 | – | – | – | –
CC[C@H]1OC(=O)[C@H](C)[C@@H](O[C@H]2C[C@@](C)(OC)[C@@H](O)[C@H](C)O2)[C@H](C)[C@@H](O[C@@H]2O[C@H](C)C[C@H](N(C)C(C)C)[C@H]2O)[C@]2(C)CC(C)=C(O2)[C@H](C)C(=O)[C@]1(C)OC | – | – | – | – | 22 | –
CC[C@H]1OC(=O)[C@H](C)[C@@H](O[C@H]2C[C@@](C)(OC)[C@@H](O)[C@H](C)O2)[C@H](C)[C@@H](O[C@@H]2O[C@H](C)C[C@H](N(C)CCO)[C@H]2O)[C@](C)(O)C[C@@H](C)[C@H](O)[C@H](C)[C@@H](O)[C@]1(C)O | 210 | – | – | – | – | –
CC[C@H]1OC(=O)[C@H](C)[C@@H](O[C@H]2C[C@@](C)(OC)C[C@H](C)O2)[C@H](C)[C@@H](O[C@@H]2O[C@H](C)C[C@H](N(C)C(C)C)[C@H]2O)[C@](C)(O)C[C@@H](C)[C@H](OCC(=O)NC)[C@H](C)[C@@H](O)[C@]1(C)O | 17 | 97 | 128 (≈ 156 µM) | 57 | – | 30000
CC[C@H]1OC(=O)[C@H](C)[C@@H](O[C@H]2C[C@@](C)(OC)C[C@H](C)O2)[C@H](C)[C@@H](O[C@@H]2O[C@H](C)C[C@H](N(C)C(C)C)[C@H]2O)[C@](C)(O)C[C@@H](C)[C@H](O)[C@H](C)[C@@H](O)[C@]1(C)O | 59 | – | 64 (≈ 85.6 µM) | 74 | 88 | –
CC[C@H]1OC(=O)[C@H](C)[C@@H](O[C@H]2C[C@@](C)(OC)[C@@H](O)[C@H](C)O2)[C@H](C)[C@@H](O[C@@H]2O[C@H](C)C[C@H](N(C)C(C)C)[C@H]2O)[C@](C)(O)C[C@@H](C)[C@H](OCC(N)=O)[C@H](C)[C@@H](O)[C@]1(C)O | – | 29 | – | – | – | –
CC[C@H]1OC(=O)[C@H](C)[C@@H](O[C@H]2C[C@@](C)(OC)[C@@H](O)[C@H](C)O2)[C@H](C)[C@@H](O[C@@H]2O[C@H](C)C[C@H](N(C)C3CCC3)[C@H]2O)[C@](C)(O)C[C@@H](C)[C@H](O)[C@H](C)[C@@H](O)[C@]1(C)O | 350 | – | – | – | – | –
CC[C@H]1OC(=O)[C@H](C)[C@@H](O[C@H]2C[C@@](C)(OC)CC(C)O2)[C@H](C)[C@@H](O[C@@H]2O[C@H](C)C[C@H](N(C)CC)[C@H]2O)C2(C)CC(C)=C(O2)[C@H](C)[C@@H](O)[C@H]1C (single isomer, unassigned) | – | – | – | – | 9 | –
CC[C@H]1OC(=O)[C@H](C)[C@@H](O[C@H]2C[C@@](C)(OC)[C@@H](O)[C@H](C)O2)[C@H](C)[C@@H](O[C@@H]2O[C@H](C)C[C@H](N(C)CC(C)(C)O)[C@H]2O)[C@](C)(O)C[C@@H](C)[C@H](O)[C@H](C)[C@@H](O)[C@]1(C)O | 100 | – | – | – | – | –

Reference: ChEMBL document CHEMBL1777727, “The role of the 4''-hydroxyl on motilin agonist potency in the 9-dihydroerythromycin series” (Bioorg Med Chem Lett, 2011)
